The values below come from patent US8574563B2 (Bristol-Myers Squibb Company, priority 2006, dated 2013).

One may read the EC50 as the concentration giving half of the maximal effect.

Where two headings read alike, the source gives them in different places.

This assay relates to HCV 1b-377-neo replicon cells. As to the kind of experiment: HCV replicon assay, HCV 1b-377-neo replicon cells (1b FRET). Format: cell-based, Hepatitis C virus genotype 1b. The conditions noted are these: HCV 1b-377-neo replicon cells, HCV 1b genotype, read-out: EC50 range against HCV 1b (Table 2, Range). In outline: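 Compounds tested in HCV genotype 1b-377-neo replicon cells with a FRET read-out. Cells resistant to a reference NS5A inhibitor through a Y2065H NS5A mutation were run alongside wild-type cells.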
A general note: Replicon systems follow genome replication, usually without infectious particles.

With `COC(=O)N[C@@H](C(=O)N1CCC[C@H]1c1ncc(-c2ccc(-c3ccc(-c4cnc([C@@H]5CCCN5C(=O)[C@H]5CCN(Cc6ccccc6)C5)[nH]4)cc3)cc2)[nH]1)c1ccccc1` [Example 84-28], the EC50 was in the range of 0.001 to 0.999 nM.
`COC(=O)N[C@@H](C(=O)N1CCC[C@H]1c1ncc(-c2ccc(-c3ccc(-c4cnc([C@@H]5CCCN5C(=O)C5(C(F)(F)F)CC5)[nH]4)cc3)cc2)[nH]1)c1ccccc1` [Example 84-32, methyl ((1R)-2-oxo-1-phenyl-2-((2S)-2-(5-(4′-(2-((2S)-1-((1-(trifluoromethyl)cyclopropyl)carbonyl)-2-pyrrolidinyl)-1H-imidazol-5-yl)-4-biphenylyl)-1H-imidazol-2-yl)-1-pyrrolidinyl)ethyl)carbamate]: the EC50 (Hepatitis C virus) fell in the range of 0.001 to 0.999 nM.
On to `COC(=O)N[C@@H](C(=O)N1CCC[C@H]1c1ncc(-c2ccc(-c3ccc(-c4cnc([C@@H]5CCCN5C(=O)c5ccc(N(C)C)cc5)[nH]4)cc3)cc2)[nH]1)c1ccccc1` [Example 84-33, methyl ((1R)-2-((2S)-2-(5-(4′-(2-((2S)-1-(4-(dimethylamino)benzoyl)-2-pyrrolidinyl)-1H-imidazol-5-yl)-4-biphenylyl)-1H-imidazol-2-yl)-1-pyrrolidinyl)-2-oxo-1-phenylethyl)carbamate], for which the EC50 (Hepatitis C virus) fell in the range of 0.001 to 0.999 nM.
As to `COC(=O)N[C@@H](C(=O)N1CCC[C@H]1c1ncc(-c2ccc(-c3ccc(-c4cnc([C@@H]5CCCN5C(=O)[C@H]5CC[C@@H](NC(=O)OC(C)(C)C)CC5)[nH]4)cc3)cc2)[nH]1)c1ccccc1` [Example 84-35, methyl ((1R)-2-((2S)-2-(5-(4′-(2-((2S)-1-((cis-4-((tert-butoxycarbonyl)amino)cyclohexyl)carbonyl)-2-pyrrolidinyl)-1H-imidazol-5-yl)-4-biphenylyl)-1H-imidazol-2-yl)-1-pyrrolidinyl)-2-oxo-1-phenylethyl)carbamate], the concentration for a half-maximal effect (EC50) (Hepatitis C virus) lay in the range of 0.001 to 0.999 nM.
In the case of `COC(=O)N[C@@H](C(=O)N1CCC[C@H]1c1ncc(-c2ccc(-c3ccc(-c4cnc([C@@H]5CCCN5C(=O)C5CCN(C(=O)OC(C)(C)C)CC5)[nH]4)cc3)cc2)[nH]1)c1ccccc1` [Example 84-36, tert-butyl 4-(((2S)-2-(5-(4′-(2-((2S)-1-((2R)-2-((methoxycarbonyl)amino)-2-phenylacetyl)-2-pyrrolidinyl)-1H-imidazol-5-yl)-4-biphenylyl)-1H-imidazol-2-yl)-1-pyrrolidinyl)carbonyl)-1-piperidinecarboxylate], the concentration for a half-maximal effect (EC50) (Hepatitis C virus) fell in the range of 0.001 to 0.999 nM.
Regarding `COC(=O)N[C@@H](C(=O)N1CCC[C@H]1c1ncc(-c2ccc(-c3ccc(-c4cnc([C@@H]5CCCN5C(=O)C(c5ccccc5)c5ccccc5)[nH]4)cc3)cc2)[nH]1)c1ccccc1` [Example 84-38, methyl ((1R)-2-((2S)-2-(5-(4′-(2-((2S)-1-(diphenylacetyl)-2-pyrrolidinyl)-1H-imidazol-5-yl)-4-biphenylyl)-1H-imidazol-2-yl)-1-pyrrolidinyl)-2-oxo-1-phenylethyl)carbamate], for the setting “Hepatitis C virus”, the half-maximal effective concentration (EC50) fell in the range of 0.001 to 0.999 nM.
As for `COC(=O)N[C@@H](C(=O)N1CCC[C@H]1c1ncc(-c2ccc(-c3ccc(-c4cnc([C@@H]5CCCN5C(=O)CCC(C)=O)[nH]4)cc3)cc2)[nH]1)c1ccccc1` [Example 84-39, methyl ((1R)-2-oxo-2-((2S)-2-(5-(4′-(2-((2S)-1-(4-oxopentanoyl)-2-pyrrolidinyl)-1H-imidazol-5-yl)-4-biphenylyl)-1H-imidazol-2-yl)-1-pyrrolidinyl)-1-phenylethyl)carbamate], where the note is “Hepatitis C virus”, the EC50 lay in the range of 0.001 to 0.999 nM.
As to `COC(=O)N[C@@H](C(=O)N1CCC[C@H]1c1ncc(-c2ccc(-c3ccc(-c4cnc([C@@H]5CCCN5C(=O)c5ccccc5F)[nH]4)cc3)cc2)[nH]1)c1ccccc1` [Example 84-40, methyl ((1R)-2-((2S)-2-(5-(4′-(2-((2S)-1-(2-fluorobenzoyl)-2-pyrrolidinyl)-1H-imidazol-5-yl)-4-biphenylyl)-1H-imidazol-2-yl)-1-pyrrolidinyl)-2-oxo-1-phenylethyl)carbamate], where the note is “Hepatitis C virus”, the concentration giving a half-maximal response (EC50) lay in the range of 0.001 to 0.999 nM.
